Results as given in patent US11078211B2, “Photoresponsive nucleotide analog capable of photocrosslinking in visible light region” (JAPAN ADVANCED INSTITUTE OF SCIENCE AND TECHNOLOGY, priority 2017, dated 2021).

Tests used:
[1] = irradiation with light having 350 nm; cited from earlier work
[2] = tested on: ODN(T) (5′-ACGGGTGCA-3′), thymine; assay: Photocrosslinking reaction targeted for thymine, HPLC analysis after light irradiation; settings: for conversion rate: irradiation for one hour
Description: (§1) To an equal amount mixture (5 μM in 50 mM Na-Cacodylate buffer (pH 7.4), 100 mM NaCl) of the oligo DNA containing pc-D [hereinafter referred to as ODN (Y·pc-D), in which Y is A (adenine) or G (guanine)] and a complementary oligo DNA [hereinafter referred to as ODN(Z), in which Z is T (thymine) or C (cytosine)] was added deoxyuridine (25 μM) as an internal standard, and irradiated with light at 4° C. (400 nm, […]). The solution was analyzed by HPLC (eluent: acetonitrile/50 mM of ammonium formate; 1-20% of acetonitrile/10 min; a flow rate: 0.2 mL/min) to evaluate photoreactivity.
FIG. 3a is an explanatory diagram showing the flow of the operations. In the ODN (A-pc-D)(5′-TGCAXCCGT-3′)(SEQ ID NO: 1) in which the target of photocrosslinking is thymine (T). the nucleoside analog (pc-D) according to the present invention is introduced as an improved photoreactive element at a position of X in the sequence.
Charts arranged in the vertical axis direction correspond to light irradiation times (0 sec, 1 sec, 5 sec. 10 sec, and 30 sec), and the horizontal axis indicates a retention time (minutes). The peaks of ODN (A⋅pc-D) and ODN (T), which were present before light irradiation (0 sec), were reduced by the light irradiation, and at the same time, a peak of a photodimer (ODN (pc-D/T)) with ODN (A⋅pc-D) and ODN (T) crosslinked appeared. As the light irradiation time increased, the peak area of(ODN (pc-D/T)) increased, confirming that the photocrosslinking reaction was progressing. FIG. 3c is a graph showing a change in a crosslinking rate as a function of light irradiation time. In FIG. 3c, the horizontal axis represents a light irradiation time (seconds), and the vertical axis represents a conversion rate (%). The conversion rate, i.e., a rate of change from a monomer to a dimer, was defined as a conversion rate of 100% for a case of being completely changed to the dimer.
The respective conversion rates were 86% at 450 nm, 70% at 500 nm, and 38% at 550 nm.
The photocrosslinking reaction was carried out by the same procedure as that of ODN (A-pc-D), using a pc-S-containing oligo DNA in which T (thymine) was a target for the photocrosslinking (5′-TGCAXCCGT-3′: hereinafter referred to as ODN (A-pc-S)) (SEQ ID NO: 5), and ODN (T) which was a complementary oligo DNA (FIG. 6a).
Charts arranged in the vertical axis direction correspond to light irradiation times (0 seconds, 60 seconds), respectively, and the horizontal axis indicates a retention time (minutes).

[3] = tested on: ODN (C) (5′-ACGGGCGCA-3′), cytosine; assay: Photocrosslinking reaction targeted for cytosine, HPLC analysis after light irradiation; settings: 400 nm, 30 seconds
Description: as §1
The photocrosslinking reaction was carried out by the same procedure as that of ODN (A⋅pc-D), using a pc-D-containing oligo DNA in which C (cytosine) was a target for the photocrosslinking (5′-TGCGXCCGT-3′; hereinafter referred to as ODN (G-pc-D)) (SEQ ID NO: 3) and a complementary oligo DNA (5′-ACGGGCGCA-3′: hereinafter referred to as ODN (C))(FIG. 4a)(SEQ ID NO: 4). As a result of irradiation with light having 400 nm for 30 seconds, the conversion rate by photocrosslinking was 71% (FIG. 4b).

O=c1ccc2cc3ccoc3cc2o1 [psoralen]
time required for photoreaction [1]: several hours

ODN (A·pc-D): Oligo DNA 5′-TGCAXCCGT-3′, in which X is the nucleic acid photoreactive element (pc-D) (DNA TGCANCCGT; photoreactive element pc-D, chemistry not fully specified)
conversion rate (monomer to photodimer) ([2]; 400 nm, 10 seconds of irradiation, 4° C., 5 μM, pH 7.4): 94% | crosslinking ([2]; 400 nm, after one hour, 4° C.): ~100% | conversion rate ([2]; 450 nm): 86% | conversion rate ([2]; 500 nm): 70% | conversion rate ([2]; 550 nm): 38%

ODN (A·pc-S): Oligo DNA 5′-TGCAXCCGT-3′, in which X is the nucleic acid photoreactive element (pc-S) (DNA TGCANCCGT; photoreactive element pc-S, chemistry not fully specified)
photodimer formation (HPLC) ([2]; 400 nm, 60 seconds): a peak of the photodimer (ODN (pc-S/T) appeared

ODN (G-pc-D): Oligo DNA 5′-TGCGXCCGT-3′, in which X is the nucleic acid photoreactive element (pc-D) (DNA TGCGNCCGT; photoreactive element pc-D, chemistry not fully specified)
conversion rate by photocrosslinking [3]: 71%
